From US11725011B2, “Bicyclic urea kinase inhibitors and uses thereof” (The Broad Institute, Inc., priority 2016, dated 2023)

Experiments:
Conditions in all cases: 1 uM
ACVRL1 = ACVRL1 (Homo sapiens (Human), UniProt P37023); experiment: KINOMEscan; assay type: binding
ALK (L1196M) = ALK (L1196M) (Homo sapiens (Human), UniProt Q9UM73, L1196M); experiment: KINOMEscan; assay type: binding
ARK5 = ARK5 (Homo sapiens (Human), UniProt O60285); experiment: KINOMEscan; assay type: binding
AURKB = AURKB (Homo sapiens (Human), UniProt Q96GD4); experiment: KINOMEscan; assay type: binding
CAMK2G = CAMK2G (Homo sapiens (Human), UniProt Q13555); experiment: KINOMEscan; assay type: binding
CASK = CASK (Homo sapiens (Human), UniProt O14936); experiment: KINOMEscan; assay type: binding
CSNK1A1L = CSNK1A1L (Homo sapiens (Human), UniProt Q8N752); experiment: KINOMEscan; assay type: binding
CSNK1G1 = CSNK1G1 (Homo sapiens (Human), UniProt Q9HCP0); experiment: KINOMEscan; assay type: binding
DDR1 = DDR1 (Homo sapiens (Human), UniProt Q08345); experiment: KINOMEscan; assay type: binding
EPHA7 = EPHA7 (Homo sapiens (Human), UniProt Q15375); experiment: KINOMEscan; assay type: binding
EPHB2 = EPHB2 (Homo sapiens (Human), UniProt P29323); experiment: KINOMEscan; assay type: binding
ERK2 = ERK2 (Homo sapiens (Human), UniProt P28482); experiment: KINOMEscan; assay type: binding
ERK3 = ERK3 (Homo sapiens (Human), UniProt Q16659); experiment: KINOMEscan; assay type: binding
FGFR2 = FGFR2 (Homo sapiens (Human), UniProt P21802); experiment: KINOMEscan; assay type: binding
FLT3 (N841I) = FLT3 (N841I) (Homo sapiens (Human), UniProt P36888, N841I); experiment: KINOMEscan; assay type: binding
FLT4 = FLT4 (Homo sapiens (Human), UniProt P35916); experiment: KINOMEscan; assay type: binding
FYN = FYN (Homo sapiens (Human), UniProt P06241); experiment: KINOMEscan; assay type: binding
GAK = GAK (Homo sapiens (Human), UniProt O14976); experiment: KINOMEscan; assay type: binding
GRK7 = GRK7 (Homo sapiens (Human), UniProt Q8WTQ7); experiment: KINOMEscan; assay type: binding
HUNK = HUNK (Homo sapiens (Human), UniProt P57058); experiment: KINOMEscan; assay type: binding
[1] = target: JAK1 (JH2 domain-pseudokinase) (Homo sapiens (Human), UniProt P23458); experiment: KINOMEscan; assay type: binding
LATS2 = LATS2 (Homo sapiens (Human), UniProt Q9NRM7); experiment: KINOMEscan; assay type: binding
MARK1 = MARK1 (Homo sapiens (Human), UniProt Q9P0L2); experiment: KINOMEscan; assay type: binding
MET (Y1235D) = MET (Y1235D) (Homo sapiens (Human), UniProt P08581, Y1235D); experiment: KINOMEscan; assay type: binding
MKNK1 = MKNK1 (Homo sapiens (Human), UniProt Q9BUB5); experiment: KINOMEscan; assay type: binding
MLCK = MLCK (Homo sapiens (Human), UniProt Q32MK0); experiment: KINOMEscan; assay type: binding
MRCKA = MRCKA (Homo sapiens (Human), UniProt Q5VT25); experiment: KINOMEscan; assay type: binding
MTOR = MTOR (Homo sapiens (Human), UniProt P42345); experiment: KINOMEscan; assay type: binding
p38-gamma = p38-gamma (Homo sapiens (Human), UniProt P53778); experiment: KINOMEscan; assay type: binding
PAK1 = PAK1 (Homo sapiens (Human), UniProt Q13153); experiment: KINOMEscan; assay type: binding
PAK3 = PAK3 (Homo sapiens (Human), UniProt O75914); experiment: KINOMEscan; assay type: binding
PIK3C2B = PIK3C2B (Homo sapiens (Human), UniProt O00750); experiment: KINOMEscan; assay type: binding
PKAC-alpha = PKAC-alpha (Homo sapiens (Human), UniProt P17612); experiment: KINOMEscan; assay type: binding
PRKD1 = PRKD1 (Homo sapiens (Human), UniProt Q15139); experiment: KINOMEscan; assay type: binding
PRKD2 = PRKD2 (Homo sapiens (Human), UniProt Q9BZL6); experiment: KINOMEscan; assay type: binding
PRKD3 = PRKD3 (Homo sapiens (Human), UniProt O94806); experiment: KINOMEscan; assay type: binding
SNRK = SNRK (Homo sapiens (Human), UniProt Q9NRH2); experiment: KINOMEscan; assay type: binding
STK16 = STK16 (Homo sapiens (Human), UniProt O75716); experiment: KINOMEscan; assay type: binding
TAOK1 = TAOK1 (Homo sapiens (Human), UniProt Q7L7X3); experiment: KINOMEscan; assay type: binding
TRKB = TRKB (Homo sapiens (Human), UniProt Q16620); experiment: KINOMEscan; assay type: binding
PKNB (M. tuberculosis) = PKNB (M. tuberculosis) (Mycobacterium tuberculosis (strain ATCC 25618 / H37Rv), UniProt P9WI81)

PAK1, sequence (Q13153 whole entry): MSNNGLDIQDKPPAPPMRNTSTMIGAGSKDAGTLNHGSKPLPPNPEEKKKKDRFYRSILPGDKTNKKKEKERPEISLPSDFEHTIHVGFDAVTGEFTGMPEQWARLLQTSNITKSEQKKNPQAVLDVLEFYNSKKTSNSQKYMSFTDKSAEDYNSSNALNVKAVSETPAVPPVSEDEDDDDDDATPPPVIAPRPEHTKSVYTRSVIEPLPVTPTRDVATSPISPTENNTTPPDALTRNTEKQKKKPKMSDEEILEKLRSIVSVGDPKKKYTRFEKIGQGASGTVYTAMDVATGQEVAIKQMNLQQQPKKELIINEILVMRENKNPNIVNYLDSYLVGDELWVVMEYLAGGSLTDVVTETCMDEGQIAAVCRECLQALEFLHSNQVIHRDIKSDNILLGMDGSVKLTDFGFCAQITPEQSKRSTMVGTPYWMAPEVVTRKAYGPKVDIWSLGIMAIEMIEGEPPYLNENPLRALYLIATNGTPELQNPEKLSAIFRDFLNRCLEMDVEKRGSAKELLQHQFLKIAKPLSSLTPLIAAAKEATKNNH
TAOK1, sequence (Q7L7X3 whole entry): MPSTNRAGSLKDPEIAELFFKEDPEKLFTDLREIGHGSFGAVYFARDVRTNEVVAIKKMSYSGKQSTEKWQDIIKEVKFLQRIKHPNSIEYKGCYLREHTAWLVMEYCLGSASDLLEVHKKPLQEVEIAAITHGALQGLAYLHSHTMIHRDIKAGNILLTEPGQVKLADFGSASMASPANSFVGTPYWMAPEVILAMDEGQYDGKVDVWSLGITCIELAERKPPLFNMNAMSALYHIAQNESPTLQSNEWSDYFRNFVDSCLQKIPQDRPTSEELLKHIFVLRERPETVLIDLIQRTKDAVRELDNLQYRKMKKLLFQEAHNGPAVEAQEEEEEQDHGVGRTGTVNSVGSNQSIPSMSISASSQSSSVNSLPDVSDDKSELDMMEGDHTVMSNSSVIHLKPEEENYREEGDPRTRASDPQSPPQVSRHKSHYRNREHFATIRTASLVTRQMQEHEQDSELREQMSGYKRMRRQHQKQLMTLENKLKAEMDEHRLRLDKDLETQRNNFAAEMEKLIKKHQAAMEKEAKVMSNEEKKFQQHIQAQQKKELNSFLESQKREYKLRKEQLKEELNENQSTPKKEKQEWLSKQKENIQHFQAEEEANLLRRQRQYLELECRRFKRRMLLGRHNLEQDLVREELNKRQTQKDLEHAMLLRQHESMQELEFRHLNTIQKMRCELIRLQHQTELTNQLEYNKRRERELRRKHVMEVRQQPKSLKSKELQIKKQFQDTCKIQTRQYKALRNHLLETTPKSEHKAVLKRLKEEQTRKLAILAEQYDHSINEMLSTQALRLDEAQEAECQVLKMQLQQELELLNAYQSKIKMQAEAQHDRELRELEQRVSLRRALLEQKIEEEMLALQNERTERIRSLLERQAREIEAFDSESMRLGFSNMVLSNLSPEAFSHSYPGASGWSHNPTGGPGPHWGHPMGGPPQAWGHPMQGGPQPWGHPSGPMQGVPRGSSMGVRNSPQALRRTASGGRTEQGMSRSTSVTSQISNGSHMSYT
HUNK, sequence (P57058 whole entry, the tested form may be a part): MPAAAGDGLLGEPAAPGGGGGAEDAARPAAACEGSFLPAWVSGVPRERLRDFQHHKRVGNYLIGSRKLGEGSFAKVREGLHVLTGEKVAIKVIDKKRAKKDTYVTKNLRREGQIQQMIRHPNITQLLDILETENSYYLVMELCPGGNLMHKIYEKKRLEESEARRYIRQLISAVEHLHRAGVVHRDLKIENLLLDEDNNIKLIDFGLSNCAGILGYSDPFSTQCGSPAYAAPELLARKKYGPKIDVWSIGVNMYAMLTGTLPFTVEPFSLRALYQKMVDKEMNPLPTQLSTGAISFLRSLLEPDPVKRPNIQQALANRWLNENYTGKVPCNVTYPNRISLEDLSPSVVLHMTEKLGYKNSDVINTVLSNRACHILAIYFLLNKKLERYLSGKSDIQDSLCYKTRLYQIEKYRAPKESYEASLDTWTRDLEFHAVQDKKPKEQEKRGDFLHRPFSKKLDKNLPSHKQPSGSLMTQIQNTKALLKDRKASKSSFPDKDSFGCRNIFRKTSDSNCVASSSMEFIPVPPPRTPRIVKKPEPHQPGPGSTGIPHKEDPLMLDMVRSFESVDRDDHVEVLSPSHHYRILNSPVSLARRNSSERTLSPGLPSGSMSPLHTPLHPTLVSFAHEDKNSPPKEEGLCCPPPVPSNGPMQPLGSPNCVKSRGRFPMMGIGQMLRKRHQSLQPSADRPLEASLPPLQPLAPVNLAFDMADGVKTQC
PAK3, sequence (O75914 whole entry): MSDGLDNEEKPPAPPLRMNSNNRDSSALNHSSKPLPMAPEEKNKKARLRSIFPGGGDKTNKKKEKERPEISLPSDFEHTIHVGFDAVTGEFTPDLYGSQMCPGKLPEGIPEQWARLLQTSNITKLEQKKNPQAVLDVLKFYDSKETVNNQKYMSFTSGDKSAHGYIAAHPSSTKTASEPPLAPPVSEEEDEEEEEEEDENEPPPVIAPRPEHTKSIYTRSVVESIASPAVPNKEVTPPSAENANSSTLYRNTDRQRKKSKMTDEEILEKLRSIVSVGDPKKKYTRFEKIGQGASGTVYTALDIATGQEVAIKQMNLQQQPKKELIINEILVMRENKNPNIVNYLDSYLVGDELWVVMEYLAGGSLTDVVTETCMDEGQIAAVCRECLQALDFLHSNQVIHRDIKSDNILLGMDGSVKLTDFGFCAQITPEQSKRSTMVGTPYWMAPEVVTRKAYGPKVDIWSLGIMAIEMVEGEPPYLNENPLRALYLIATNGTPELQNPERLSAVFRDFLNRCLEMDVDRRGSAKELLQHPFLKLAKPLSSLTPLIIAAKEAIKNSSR
FGFR2, sequence (P21802 22-821): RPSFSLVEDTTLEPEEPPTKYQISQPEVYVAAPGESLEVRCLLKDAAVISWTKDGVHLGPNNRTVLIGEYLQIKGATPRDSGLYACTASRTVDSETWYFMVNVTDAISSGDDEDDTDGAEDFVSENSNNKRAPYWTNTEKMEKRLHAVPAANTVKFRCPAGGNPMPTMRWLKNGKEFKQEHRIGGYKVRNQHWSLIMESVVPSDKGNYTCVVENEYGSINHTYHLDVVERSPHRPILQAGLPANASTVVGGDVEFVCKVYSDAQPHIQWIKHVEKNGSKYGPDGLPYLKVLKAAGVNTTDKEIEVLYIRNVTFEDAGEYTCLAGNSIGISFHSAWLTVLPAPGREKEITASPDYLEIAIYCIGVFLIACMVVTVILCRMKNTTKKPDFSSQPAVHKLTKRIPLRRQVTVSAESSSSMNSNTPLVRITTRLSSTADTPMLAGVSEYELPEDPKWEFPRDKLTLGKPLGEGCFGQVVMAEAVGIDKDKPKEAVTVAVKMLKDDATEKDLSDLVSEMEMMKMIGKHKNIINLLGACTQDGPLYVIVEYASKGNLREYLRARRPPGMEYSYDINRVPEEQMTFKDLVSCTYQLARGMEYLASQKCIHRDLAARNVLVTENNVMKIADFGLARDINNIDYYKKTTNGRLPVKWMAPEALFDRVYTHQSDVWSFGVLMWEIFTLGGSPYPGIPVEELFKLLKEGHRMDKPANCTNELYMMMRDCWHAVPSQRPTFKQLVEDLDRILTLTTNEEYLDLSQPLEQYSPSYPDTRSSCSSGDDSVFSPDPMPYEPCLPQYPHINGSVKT
PRKD1, sequence (Q15139 whole entry): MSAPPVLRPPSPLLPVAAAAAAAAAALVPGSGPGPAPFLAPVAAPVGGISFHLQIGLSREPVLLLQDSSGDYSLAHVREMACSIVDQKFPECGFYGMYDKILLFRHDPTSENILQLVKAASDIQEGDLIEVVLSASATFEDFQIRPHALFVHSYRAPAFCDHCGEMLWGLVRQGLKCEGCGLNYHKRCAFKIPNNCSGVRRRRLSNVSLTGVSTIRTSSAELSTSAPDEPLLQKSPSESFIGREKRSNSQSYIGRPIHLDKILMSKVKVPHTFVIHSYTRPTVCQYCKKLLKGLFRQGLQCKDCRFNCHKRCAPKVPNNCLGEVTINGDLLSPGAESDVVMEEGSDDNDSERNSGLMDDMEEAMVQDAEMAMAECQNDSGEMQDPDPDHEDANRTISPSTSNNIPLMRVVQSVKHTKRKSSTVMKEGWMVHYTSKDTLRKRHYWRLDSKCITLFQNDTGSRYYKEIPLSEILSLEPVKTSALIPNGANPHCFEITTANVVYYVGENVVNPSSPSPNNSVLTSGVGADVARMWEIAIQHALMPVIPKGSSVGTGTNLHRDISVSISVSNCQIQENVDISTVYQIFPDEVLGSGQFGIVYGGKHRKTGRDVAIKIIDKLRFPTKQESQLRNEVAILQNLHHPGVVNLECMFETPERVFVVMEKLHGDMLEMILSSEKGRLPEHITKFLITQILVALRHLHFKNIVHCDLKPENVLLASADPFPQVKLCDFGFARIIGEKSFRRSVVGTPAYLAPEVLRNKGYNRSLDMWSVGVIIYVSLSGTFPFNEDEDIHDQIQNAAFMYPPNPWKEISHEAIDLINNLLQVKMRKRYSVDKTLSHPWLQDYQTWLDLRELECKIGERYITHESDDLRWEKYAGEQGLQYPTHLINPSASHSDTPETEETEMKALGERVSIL
ERK2, sequence (P28482 whole entry): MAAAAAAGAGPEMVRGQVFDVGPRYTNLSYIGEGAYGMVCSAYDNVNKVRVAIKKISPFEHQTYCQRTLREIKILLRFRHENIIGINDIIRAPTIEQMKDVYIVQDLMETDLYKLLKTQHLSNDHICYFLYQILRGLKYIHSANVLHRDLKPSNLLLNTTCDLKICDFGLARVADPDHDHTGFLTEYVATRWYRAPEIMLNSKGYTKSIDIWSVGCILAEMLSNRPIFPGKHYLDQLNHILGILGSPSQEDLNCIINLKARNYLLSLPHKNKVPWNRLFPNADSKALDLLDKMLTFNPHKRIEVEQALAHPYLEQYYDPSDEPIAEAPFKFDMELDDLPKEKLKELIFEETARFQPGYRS

Which results are given for COc1ccc(N2C(=O)N(c3c(C)cccc3C)Cc3cnc(Nc4ccc(N5CCN(C)CC5)cc4)nc32)c(OC)c1 [HG-11-136-01]?
KINOMEscan ACVRL1 (ACVRL1): 16; KINOMEscan ALK (L1196M) (ALK (L1196M)): 8.2; KINOMEscan ARK5 (ARK5): 8.2; KINOMEscan AURKB (AURKB): 26; KINOMEscan CAMK2G (CAMK2G): 100; KINOMEscan CASK (CASK): 54; KINOMEscan CSNK1A1L (CSNK1A1L): 97; KINOMEscan CSNK1G1 (CSNK1G1): 92; KINOMEscan DDR1 (DDR1): 0.3; KINOMEscan EPHA7 (EPHA7): 72; KINOMEscan EPHB2 (EPHB2): 0; KINOMEscan ERK2 (ERK2): 96; KINOMEscan ERK3 (ERK3): 81; KINOMEscan FGFR2 (FGFR2): 0.8; KINOMEscan FLT3 (N841I) (FLT3 (N841I)): 11; KINOMEscan FLT4 (FLT4): 6.6; KINOMEscan FYN (FYN): 0.35; KINOMEscan GAK (GAK): 6.8; KINOMEscan GRK7 (GRK7): 96; KINOMEscan HUNK (HUNK): 28; KINOMEscan JAK1 (JH2 domain-pseudokinase) [1]: 8.1; KINOMEscan LATS2 (LATS2): 60; KINOMEscan MARK1 (MARK1): 5.1; KINOMEscan MET (Y1235D) (MET (Y1235D)): 61; KINOMEscan MKNK1 (MKNK1): 85; KINOMEscan MLCK (MLCK): 100; KINOMEscan MRCKA (MRCKA): 99; KINOMEscan MTOR (MTOR): 83; KINOMEscan p38-gamma (p38-gamma): 91; KINOMEscan PAK1 (PAK1): 3.7; KINOMEscan PAK3 (PAK3): 11; KINOMEscan PIK3C2B (PIK3C2B): 0.55; KINOMEscan PKAC-alpha (PKAC-alpha): 85; KINOMEscan PRKD1 (PRKD1): 3.6; KINOMEscan PRKD2 (PRKD2): 3.6; KINOMEscan PRKD3 (PRKD3): 5.4; KINOMEscan SNRK (SNRK): 91; KINOMEscan STK16 (STK16): 5.6; KINOMEscan TAOK1 (TAOK1): 1; KINOMEscan TRKB (TRKB): 63; KINOMEscan PKNB (M. tuberculosis) (PKNB (M. tuberculosis)): 6.6
